Measured values taken from BindingDB's records for doi:10.1124/jpet.103.049619 (University of Kansas, 2003).

What was measured:
Histamine H1 receptor [1] = molecular target: Histamine H1 receptor (Cavia porcellus, UniProt P31389)
Histamine H1 receptor [2] = molecular target: Histamine H1 receptor (Homo sapiens, UniProt P35367)
Sequence of Histamine H1 receptor (Homo sapiens, UniProt P35367) (P35367 whole entry): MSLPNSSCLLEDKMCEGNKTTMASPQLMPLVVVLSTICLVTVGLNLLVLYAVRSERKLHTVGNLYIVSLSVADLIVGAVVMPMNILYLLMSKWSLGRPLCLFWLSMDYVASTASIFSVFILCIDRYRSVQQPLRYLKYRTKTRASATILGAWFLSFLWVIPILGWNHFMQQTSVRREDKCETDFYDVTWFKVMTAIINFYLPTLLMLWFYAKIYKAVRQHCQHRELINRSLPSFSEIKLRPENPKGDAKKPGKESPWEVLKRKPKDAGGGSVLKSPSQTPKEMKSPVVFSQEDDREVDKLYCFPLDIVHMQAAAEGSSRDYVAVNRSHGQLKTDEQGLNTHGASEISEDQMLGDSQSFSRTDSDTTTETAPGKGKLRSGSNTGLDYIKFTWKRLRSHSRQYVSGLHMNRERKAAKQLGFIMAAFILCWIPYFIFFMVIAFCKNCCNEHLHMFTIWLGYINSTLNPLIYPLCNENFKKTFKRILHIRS

Sequence of Histamine H1 receptor (Cavia porcellus, UniProt P31389) (P31389 whole entry): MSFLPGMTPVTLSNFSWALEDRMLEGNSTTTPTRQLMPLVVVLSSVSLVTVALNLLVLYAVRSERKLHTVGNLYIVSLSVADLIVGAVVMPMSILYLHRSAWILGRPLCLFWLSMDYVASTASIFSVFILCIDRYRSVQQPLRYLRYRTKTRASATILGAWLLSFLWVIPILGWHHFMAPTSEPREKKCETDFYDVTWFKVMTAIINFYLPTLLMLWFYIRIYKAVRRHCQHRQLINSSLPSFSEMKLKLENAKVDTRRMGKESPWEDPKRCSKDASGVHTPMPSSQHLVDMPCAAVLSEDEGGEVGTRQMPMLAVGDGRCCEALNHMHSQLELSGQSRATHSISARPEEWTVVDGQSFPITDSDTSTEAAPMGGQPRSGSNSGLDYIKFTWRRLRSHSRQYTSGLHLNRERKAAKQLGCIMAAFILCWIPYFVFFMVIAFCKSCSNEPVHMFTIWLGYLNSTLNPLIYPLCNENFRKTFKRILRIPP

Compound: NCCc1nccs1 [2-(2-aminoethyl)thiazole]
- Ki (Histamine H1 receptor [1]): 8490 nM

Compound: NCCc1c[nH]c(-c2cccc(Cl)c2)n1 [2-(3-Chlorophenyl)histamine]
- Ki (Histamine H1 receptor [1]): 600 nM
- Ki (Histamine H1 receptor [2]): 1780 nM

Compound: NCCc1c[nH]c(-c2cccc(I)c2)n1 [2-(3-Iodophenyl)histamine]
- Ki (Histamine H1 receptor [1]): 610 nM
- Ki (Histamine H1 receptor [2]): 1760 nM

Compound: NCCc1c[nH]c(-c2cccc(Br)c2)n1 [2-[2-(3-bromophenyl)-1H-imidazol-4-yl]ethan-1-amine]
- Ki (Histamine H1 receptor [1]): 700 nM
- Ki (Histamine H1 receptor [2]): 2220 nM

Compound: N=C(NCCCc1c[nH]cn1)NCCC(c1cccc(Cl)c1)c1ccccn1 (stereo unspecified) [BU-E 47]
- Ki (Histamine H1 receptor [1]): 53.9 nM
- Ki (Histamine H1 receptor [2]): 255 nM

Compound: Cc1ccc(C(=CCN2CCCC2)c2ccccn2)cc1 [CAS_486-12-4]
- Ki (Histamine H1 receptor [1]): 1.15 nM

Compound: NC(=NCCC(c1ccc(F)cc1)c1ccccn1)NCCCc1cnc[nH]1 (stereo unspecified) [CAS_65895]
- Ki (Histamine H1 receptor [1]): 33.3 nM
- Ki (Histamine H1 receptor [2]): 353 nM

Compound: CN(C)CCc1c[nH]c(CCC(c2ccccc2)c2ccccc2)n1 [N,N-Dimethyl-2-(3,3-diphenylpropyl)-1H-imidazole-4-(ethanamine)]
- Ki (Histamine H1 receptor [1]): 310 nM
- Ki (Histamine H1 receptor [2]): 400 nM

Compound: CNCCc1cnc(CCC(c2ccccc2)c2ccccc2)[nH]1 [N-Methyl-2-(3,3-diphenylpropyl)-1H-imidazole-4-(ethanamine)]
- Ki (Histamine H1 receptor [1]): 290 nM
- Ki (Histamine H1 receptor [2]): 370 nM
